Source: US20250017849A1 (ETH ZURICH, priority 2021, published 2025)

Assays:
[1] = dog, in vivo
Description: As a control formulation, enteric-coated (Eudragit® L100-55, Essen, Germany) capsules containing commercial Minirin® drug tablets (6 pieces containing 1.2 mg desmopressin in total) was given orally to the dog.
A 3D printed clamp containing a cavity for the suction patch containing 1.2 mg desmopressin, 1.2 mg PVA, and 5.7 mg NaTaC was attached to the dog's mucosa, ensuring similar conditions (i.e., enclosed environment, close contact to the mucosa, same sample preparation and loading) as the applied suction patch, but […] and without negative pressure and the resulting tissue deformation.
The dogs were anesthetized for the duration of the experiment (3 h). […] Blood samples were collected in K2EDTA tubes immediately followed by centrifugation at 1700 G for 10 min at 4° C. Subsequently, the plasma was stored in clear polypropylene vials at −80° C. until further analysis. The drug plasma concentration was evaluated using LC-MS/MS method. Briefly, an aliquot of 900 μL dog plasma sample was mixed with 10 μL internal standard (Goserelin; 25 ng/mL) and 300 μL 4% H3PO4 acidified water into 1.5 mL Eppendorf tubes. The plasma sample was then extracted using Oasis™ WAX solid-phase extraction cartridges. […] Samples were analyzed in TOF-MRM mode with a quantification limit of […]. […]

[2] = pharmacokinetic study of semaglutide mucosal suction patch in beagle dogs; assay type: in vivo; conditions: patch with 9 mg semaglutide, 1.2 mg PVA, 11.7 mg NaTaC
Description: Briefly, an aliquot of 900 μL dog plasma sample was mixed with 10 μL internal standard (Goserelin; 25 ng/mL) and 300 μL 4% H3PO4 acidified water into 1.5 mL Eppendorf tubes. The plasma sample was then extracted using Oasis™ WAX solid-phase extraction cartridges.
The drug plasma concentration was evaluated using an LC-MS/MS method as described in Example 11.

porcine buccal mucosa [3] = experiment: ex vivo effect of hypobaric pressure on diffusion of marker molecule in porcine buccal mucosa; assay type: in vitro ADME; conditions: 54 μg Cy5, 2.1 mg C10, 1.2 mg PVA, pressure set to 30 kPa, 37° C., 3 h
Description: The device could continuously monitor and control the pressure inside the patch to a constant value, e.g., 30 kPa. For the application, the buccal tissue was prepared as described above and placed in a 6-well plate that is filled with DMEM buffer. […] Subsequently, the pressure was set by the reduction valve to 30 kPa and left in the 37° C. incubators for 3 h. Afterwards, the vacuum pump was turned off and the mucosal suction patches were detached. The tissue specimen was processed as described before for fluorescent imaging. The intensity of each image was converted to the equivalent of 150 ms exposure time to allow the comparability. When plotting the fluorescent intensity-distance profile, the absolute intensity was utilized instead of the normalized in order to compare the pressure-related permeation enhancing effects among different samples.

[4] = oral formulation, even in the presence of permeation enhancers; cited from earlier work
porcine buccal mucosa [5] = experiment: ex vivo permeation of surrogates through porcine buccal mucosa with mucosal suction patch; assay type: in vitro ADME; conditions: patch with surrogate, 1.2 mg PVA, 5.7 mg NaTaC, 3 h
Description: Specimen were permeabilized with a 0.5% Trition™ X100 PBS buffered solution for 15 min, washed for 3 min in PBS and incubated with a PBS buffered solution of 0.1% iFluor™ 488-conjugated phalloidin (F-Actin stain) and 0.1% Hoechst 33342 (Nucleous stain) for 30 min.
Fluorescence images were obtained with a widefield microscope (Leica DMI 6000) at 20× magnification in the tile scan mode and merged to a single image. The specimen was excited at 590-650 nm and the emission filtered from 662-738 nm. To evaluate the penetration depth of the surrogate, images were processed as grayscale with Fiji-ImageJ™ software. Line profiles of the grayscale intensity were obtained by drawing multiple straight lines vertical to the surface of the mucosa lining. The obtained intensity-distance profiles were transferred to Microsoft Excel™ and MatLab™ for further processing. The autofluorescence was first corrected by subtracting the averaged baseline intensity multiplied by 3 times its standard deviation obtained from a lower laying region of the tissue. The maximum intensity was set to 100% and the corresponding distance value was set to zero to normalize the drug distribution profile. […]
The molecular weight range of administrable drugs was evaluated ex-vivo on porcine buccal mucosa tissue by applying drug surrogates with different molecular weights. […]

## NC(=O)CC[C@@H]1NC(=O)[C@H](Cc2ccccc2)NC(=O)[C@H](Cc2ccc(O)cc2)NC(=O)CCSSC[C@@H](C(=O)N2CCC[C@H]2C(=O)N[C@H](CCCN=C(N)N)C(=O)NCC(N)=O)NC(=O)[C@H](CC(N)=O)NC1=O [desmopressin]
[1]
  bioavailability higher than commercial tablets: 35%

## CC[C@H](C)[C@H](NC(=O)[C@H](Cc1ccccc1)NC(=O)[C@H](CCC(=O)O)NC(=O)[C@H](CCCCNC(=O)COCCOCCNC(=O)COCCOCCNC(=O)CC[C@H](NC(=O)CCCCCCCCCCCCCCCCC(=O)O)C(=O)O)NC(=O)[C@H](C)NC(=O)[C@H](C)NC(=O)[C@H](CCC(N)=O)NC(=O)CNC(=O)[C@H](CCC(=O)O)NC(=O)[C@H](CC(C)C)NC(=O)[C@H](Cc1ccc(O)cc1)NC(=O)[C@H](CO)NC(=O)[C@H](CO)NC(=O)[C@@H](NC(=O)[C@H](CC(=O)O)NC(=O)[C@H](CO)NC(=O)[C@@H](NC(=O)[C@H](Cc1ccccc1)NC(=O)[C@@H](NC(=O)CNC(=O)[C@H](CCC(=O)O)NC(=O)C(C)(C)NC(=O)[C@@H](N)Cc1cnc[nH]1)[C@@H](C)O)[C@@H](C)O)C(C)C)C(=O)N[C@@H](C)C(=O)N[C@@H](Cc1c[nH]c2ccccc12)C(=O)N[C@@H](CC(C)C)C(=O)N[C@H](C(=O)N[C@@H](CCCNC(=N)N)C(=O)NCC(=O)N[C@@H](CCCNC(=N)N)C(=O)NCC(=O)O)C(C)C [semaglutide]
[2]
  plasma concentrations: therapeutic relevant plasma concentrations

## Cy5
Porcine buccal mucosa [3]
  effect of negative pressure on drug permeation: effectively enhanced the drug permeation

## octreotride
[4]
  oral bioavailability: 0.5-1%

B1: Alexa647-Ovalbumin: Alexa647 dye linked to ovalbumin (≈5.5 nm, 45 kDa) (conjugate, UniProt P01012 2-386, looked up)
Ovalbumin: GSIGAASMEFCFDVFKELKVHHANENIFYCPIAIMSALAMVYLGAKDSTRTQINKVVRFDKLPGFGDSIEAQCGTSVNVHSSLRDILNQITKPNDVYSFSLASRLYAEERYPILPEYLQCVKELYRGGLEPINFQTAADQARELINSWVESQTNGIIRNVLQPSSVDSQTAMVLVNAIVFKGLWEKAFKDEDTQAMPFRVTEQESKPVQMMYQIGLFRVASMASEKMKILELPFASGTMSMLVLLPDEVSGLEQLESIINFEKLTEWTSSNVMEERKIKVYLPRMKMEEKYNLTSVLMAMGITDVFSSSANLSGISSAESLKISQAVHAAHAEINEAGREVVGSAEAGVDAASVSEEFRADHPFLFCIKHIATNAVLFFGRCVSP
modifications: Alexa647 dye
Porcine buccal mucosa [5]
  crossing of the mucosal epithelium: reach deep inside
